From ChEMBL document CHEMBL3507680, “University of Dundee, Gates Library screen for HepG2 cell viability”

Experiment: Human HepG2 cell viability assay in 384 well format
Assay type: toxicity, cell-based
Design: dose 125 nL, time 70.5 hour; concentration not given beside the values
Details: HepG2 cells, read-out: Inhibition

Row | SMILES | cytotoxicity at 70.5 h
1 | COCC1CN(C(=O)c2ccccn2)Cc2nccn2C1 (stereo not given) | -11.1%
2 | Cc1c[nH]c(CN2CCCCC2CCn2ccnc2C)c(C)c1=O (stereo not given) | -8.38%
3 | Cc1noc(C)c1-c1nc(N(C)CCN(C)C)ncc1-c1cnccn1 | -6.02%
4 | COc1cc(CNC2CCc3nc(C)nn3C2)cc2c1OCO2 (stereo not given) | -5.53%
5 | COc1cc(C(=O)N2CCCC(n3ccnc3)C2)cc2c1OCCO2 (stereo not given) | -7.87%
6 | Cc1cc(CN(C)C(=O)C2CC(c3cccc(F)c3)=NO2)no1 (stereo not given) | -10.1%
7 | c1cc(CO[C@@H]2CN(Cc3ccoc3)[C@@H]3CCCO[C@@H]32)ccn1 | -16%
8 | Cc1noc([C@H]2CC[C@@H]3[C@@H](CCN3c3ncccn3)O2)n1 | -6.01%
9 | CCN(CCc1nccs1)C(=O)c1ncoc1C | -13.2%
10 | Cc1ncc2c(n1)CN(CC(=O)Nc1ccc(Cl)cn1)CC2 | -13.8%
11 | Cc1ccc2c(c1)Oc1ncccc1C(=O)N2 | -0.446%
12 | CC(C)CN1CCC2(Cc3ccccc3NC2=O)C1 (stereo not given) | -4.52%
13 | CCn1c(Cn2ccnc2)nnc1C1CCN(Cc2ccc(C)o2)CC1 | 5.39%
14 | O=C(N1CCOCC1)N1CCc2[nH]nc(COc3cccc(Cl)c3)c2C1 | -2.78%
15 | CC(=O)N1CCC(c2cccc(Oc3ccccc3)n2)CC1 | -3.81%
16 | CC(C)(C)n1ncc2c1NC(=O)CC2c1c(F)cccc1F (stereo not given) | -14.5%
17 | Cc1ccc(-c2noc([C@@H]3C[C@H](NC(=O)CC(C)(C)C)CN3C)n2)cc1 | -2%
18 | O=C(Nc1cc(Cl)ccn1)c1nc(N2CCCC2)ncc1Cl | -2.78%
19 | O=C1NCCN(Cc2ccoc2)C1CC(=O)N1CCc2sccc2C1 (stereo not given) | -0.766%
20 | CCn1nc(CNC(C)(C)CO)c(-c2ccccc2)n1 | -1.62%
21 | CN(CCC#N)C(=O)CN(C1CC1)C1CCc2ccccc21 (stereo not given) | 0.586%
22 | COc1ccc(OC)c(-c2cc(C(=O)NCC3(CO)CC3)n(C)n2)c1 | -5.05%
23 | Cc1ncncc1C(=O)N1CCCC(Cc2nccs2)C1 (stereo not given) | -4.31%

Row | SMILES | cytotoxicity at 70.5 h
24 | COCCN(C)C[C@@H]1CN(C(=O)c2ccc(=O)n(C)c2)C[C@@H]1CO | -3.56%
25 | Cc1nccc(NCc2cncc3c2CCN(S(C)(=O)=O)C3)n1 | 1.9%
26 | Cc1nc(CN2CCC(CNC(=O)C3(C)CCCC3)CC2)oc1C | -4.66%
27 | CC(=O)N1CCC1c1cc(NC2CCOCC2)nc(C)n1 (stereo not given) | -0.759%
28 | Cc1cc(=O)n(CCNC(=O)c2ccccc2Cl)cn1 | 4.36%
29 | Cc1cc(NC(=O)NCc2nccn2C)ccc1OC(C)C | -6.18%
30 | O=C(Cc1ccc2c(c1)CCO2)N1CCN(c2ccncc2)CC1 | 6.77%
31 | CCCS(=O)(=O)N1CCC2(CCN(Cc3cccc(F)c3)C2=O)C1 (stereo not given) | 36.3%
32 | COCCNC(=O)c1cc(COc2cncc(Cl)c2)on1 | -3.27%
33 | CCOc1ccnc(N2CCN(C(=O)CCc3ccsc3)CC2)n1 | -7.66%
34 | COc1ccc(C2CCCN2C(=O)NCCCn2cccn2)cc1 (stereo not given) | -11%
35 | CNC(=O)C1CCCCN1C(=O)c1csc(-c2ccc(C)o2)n1 (stereo not given) | -6.71%
36 | CC(C)NC(=O)c1ccc2c(c1)C(c1nc[nH]n1)CN2S(C)(=O)=O (stereo not given) | -14.8%
37 | CC1CN(C(=O)c2ccn(-c3cccc(Cl)c3)n2)CCO1 (stereo not given) | -6.58%
38 | CC(C)n1cc(S(=O)(=O)NCCc2nnc3ccccn23)cn1 | 5.41%
39 | COCC1CC2(CCN(C(N)=O)CC2)CN1Cc1csc(C)n1 (stereo not given) | -3.74%
40 | CC(C)c1noc([C@@H]2C[C@H](NS(=O)(=O)Cc3ccccc3)CN2C)n1 | -0.576%
41 | c1cncc(NCCNC2CCSC2)c1 (stereo not given) | 14.7%
42 | C/C(=C\c1ccco1)CN(C)C(C)Cc1ccccn1 (stereo not given) | 16%
43 | c1cnn(CC2CN(CC3CCCC3)CCO2)c1 (stereo not given) | -9.69%
44 | CCc1nc(CN(C)CC(=O)OC(C)(C)C)cs1 | -4.57%
45 | CCn1cc(NS(=O)(=O)c2ccc(Br)s2)c(C(=O)NCC(C)C)n1 | -0.598%
46 | Cc1ccc(CNC(=O)c2nc3c(o2)CN(C(=O)c2cccnc2)C3)o1 | -1.67%

Row | SMILES | cytotoxicity at 70.5 h
47 | CCn1cnnc1C1CCN(C(=O)c2ccnc(N(C)C)c2)CC1 | -8.14%
48 | CC(=O)N(CCc1ccccc1)CC(=O)NC(C)(C)C#N | -2.72%
49 | O=C(NCC1Cn2nnc(-c3ccncc3)c2CO1)c1ccc[nH]1 (stereo not given) | -5.04%
50 | COCC(=O)N1CCC(C(=O)N(C)C(C)c2ccon2)CC1 (stereo not given) | -2.4%
51 | CCn1c(C)nnc1SCCNC(=O)CC1CCc2ccccc21 (stereo not given) | -18.5%
52 | O=C1CC2(CCN(Cc3ccc(C(F)(F)F)nc3)CC2)CN1 | 8.74%
53 | CCC(=O)N1CCC(c2nc(C)c3c(n2)N(C)CCC3)CC1 | -2.67%
54 | O=C(NCC(CO)Cc1ccc(Cl)cc1)c1ccncc1F (stereo not given) | -1.03%
55 | CC(=O)N(C)Cc1cccc(NC(=O)N(C)CCc2cccs2)c1 | 11.4%
56 | CC(Cn1cccn1)NCc1csc(-c2ccccc2)n1 (stereo not given) | -3.84%
57 | O=C1CCOCCN1Cc1ccc(Cl)c(F)c1 | 23.1%
58 | CC(Cn1cncn1)NCCN1CCc2ccccc2C1 (stereo not given) | -6.48%
59 | CCn1cnnc1CNC(=O)NCC(C)(CC)N1CCOCC1 (stereo not given) | -9.65%
60 | COCC(=O)N1CC[C@@H]2O[C@H](COCc3ccncc3)CC[C@@H]21 | -15.9%
61 | Cc1c[nH]c(C2COCCN2S(=O)(=O)c2cn[nH]c2)n1 (stereo not given) | -12.8%
62 | COCC(NC(=O)c1cccnc1)c1cccc(C(F)(F)F)c1 (stereo not given) | -5.85%
63 | CNC(=O)C(C)(C)N1CCC[C@H]1C(=O)NCCN(C)C | -16.8%
64 | O=C(NCCc1nc(C2CC2)no1)[C@H]1CNC[C@H](C(=O)N2CCCC2)C1 | -1.74%
65 | CCc1ccccc1OC1CN(C(=O)CN(C)Cc2cccnc2)C1 | 14%
66 | C=C(C)COc1ccccc1CNCCc1cc(O)nc(C)n1 | -2.32%
67 | CC1CCC(NS(=O)(=O)CC(=O)NC(C2CC2)C2CC2)CC1 (stereo not given) | 23.5%
68 | Cc1nc(CN(C)C2CCN(Cc3sc(C)nc3C)C2)no1 (stereo not given) | -7.02%
69 | Cc1cc2[nH]c(=O)c(=O)[nH]c2cc1S(=O)(=O)NC1CCCCC1 | -3.77%

Row | SMILES | cytotoxicity at 70.5 h
70 | Cc1cn(-c2ccccc2)nc1NS(=O)(=O)c1cccc(C(=O)O)c1 | -1.1%
71 | Cc1cc2cc(C(=O)N3CCN(CCO)[C@@H]4CS(=O)(=O)C[C@@H]43)ccc2o1 | 19.6%
72 | CN(Cc1cccc(F)c1)C(=O)CS(=O)(=O)Cc1c(Cl)cccc1Cl | 5.76%
73 | O=C(c1n[nH]c2c1CN(C1CCOC1)CC2)N1CCOCC1 (stereo not given) | -2.91%
74 | CCOc1cc(C)nc(N2CCN(C(=O)c3ccnn3C)CC2)n1 | -3.99%
75 | Cc1c(CN2CCC(C(=O)O)(n3cccn3)CC2)oc2ccccc12 | -2.29%
76 | CCC(NC(=O)NCC(=O)NC(C)C)c1cc(F)ccc1F (stereo not given) | -3.83%
77 | O=C1Nc2ccccc2/C1=C1\CCCCCN1 | -9.34%
78 | O=C(COc1coc(CN2CCCCC2)cc1=O)Nc1ccc(Cl)cc1 | -3.76%
79 | CCN1C(=O)CCC12CCN(C(=O)c1ccco1)CC2 | -11.8%
80 | Cn1cnc2c1CCN(Cc1cccc(OCC(N)=O)c1)C2 | -9.69%
81 | CCn1ccc2ccnc(CC3CN(C(=O)c4cnco4)C3)c21 | -6.85%
82 | COCCN(Cc1cccc(OCCO)c1)Cc1ccccc1F | -2.88%
83 | CSc1nccn1-c1ccc(C(=O)NCC2CC2)cc1 | -4.68%
84 | NCCc1n[nH]c(=O)n1-c1cccc2ccccc12 | -4.93%
85 | O=C(O)c1ccc(C2CCCN(C(=O)c3ccc[nH]3)C2)cc1 (stereo not given) | -6.26%
86 | COc1ccc2c(=O)n(CC3CCNC3)ccc2c1OC (stereo not given) | 1.63%
87 | COc1cccc(-c2cc(CN)ccc2F)c1F | -8.44%
88 | O=S(=O)(Nc1cnc(N2CCOCC2)nc1)c1ccc(Cl)cc1 | 3.18%
89 | Cc1ccc(-c2cc(CNC(=O)N3CCCN(C)CC3)on2)cc1 | 2.1%
90 | O=C(CCN1CCOC(C(F)(F)F)C1)NCc1cccc(Cl)c1 (stereo not given) | -5.6%
91 | CCN1CC(CN(C)Cc2nc(-c3ccoc3)oc2C)CC1=O (stereo not given) | 0.925%
92 | CC[C@H]1CN(C(=O)c2cnc(CN3CCCC3)s2)CC[C@@]1(C)O | 22.4%

Row | SMILES | cytotoxicity at 70.5 h
93 | Cc1nn(C)c2ncnc(N(C)CC3CCN(CC(C)C)C3)c12 (stereo not given) | -2.77%
94 | O=C(O)[C@@H]1CN(Cc2cc3c(cc2Cl)OCO3)C[C@H]1C1CC1 | -1.73%
95 | Cn1cccc1C(=O)NCc1cn2c(n1)CN(c1ncccn1)CC2 | -12.8%
96 | COCCN1CCC(CNC(=O)C2(C#N)CCCC2)CC1 | 17.6%
97 | CC(=O)N1CCCN(C(=O)NCc2cccnc2OC(C)C)CC1 | -5.61%
98 | CC(=O)N[C@@H]1CN(Cc2ccccc2C(=O)O)C[C@H]1C(C)C | 0.633%
99 | O=C(c1ccncc1)N1CCN2C[C@H](Oc3cccc(F)c3)C[C@H]2C1 | -0.421%
100 | Cc1noc(CCCC(=O)N2CCNC(=O)C2)n1 | -9.21%
101 | Cc1ccc(CN2Cc3nnn(C)c3C(COCC(=O)N(C)C)C2)s1 (stereo not given) | -8.72%
102 | Cc1nc2n(n1)CC(Nc1ccnc(-c3ccccc3)n1)CC2 (stereo not given) | -6.55%
103 | COCC(=O)N1CCC2(CCN(Cc3cccnc3)C2)CC1 | -7.11%
104 | O=C(NCC(O)c1cccc(F)c1)c1sccc1OC(F)F (stereo not given) | -3.42%
105 | CCCN1CCN(Cc2cccc(OC)c2)[C@H]2CS(=O)(=O)C[C@H]21 | 25.9%
106 | COCCNC(=O)C1CN(Cc2cccc(C)n2)Cc2ccnn2C1 (stereo not given) | -5.1%
107 | CCn1nc(CC(C)C)cc1C(=O)NCCn1cccc1 | -2.38%
108 | CC(=O)N1CCC(NC(=O)NCCCc2cn[nH]c2C)CC1 | 0.436%
109 | COc1c(C(=O)N2CCOC(c3cccs3)C2)c(C)nn1C (stereo not given) | -5.91%
110 | c1cc(NCc2ccncc2)nc(C2CCCN2)c1 (stereo not given) | 2.66%
111 | CN(CCc1ccncc1)CC1CCCN1c1cccnn1 (stereo not given) | 25.1%
112 | O=S(=O)(CCNCc1cccc2c1OCCO2)N1CCOCC1 | 5.04%
113 | CC(=O)N1CCC(C)(c2cc(C(=O)NCC3CC3)nc(C)n2)CC1 | -1.84%
114 | CN1C(=O)C2(CCN(C(=O)C3CCOCC3)CC2)c2ccccc21 | -3.31%
115 | OC(CN1CCOCC1)c1ccc(Br)cc1 (stereo not given) | -4.1%
